# In patent publication US20110189174A1, “COMPOSITIONS AND METHODS FOR TREATING, REDUCING, AMELIORATING, ALLEVIATING, OR INHIBITING PROGRESSION OF, PATHOGENIC OCULAR NEOVASCULARIZATION” (priority 2010, published 2011):
# “Also recorded” adds a separate entry of the source.
# Columns and labels:
# [1] = Ocular clinical findings in rats 14 days after intravitreal injection; conditions: for Eyes with anterior chamber inflammation/Total eyes / Eyes with retinal vascular congestion/vessel-observable eyes: Day 14, 200 μg/eye intravitreal
# [2] = Clinical ophthalmic examination in monkeys (vitreal cell scores, anterior chamber inflammation); type: in vivo, cynomolgus monkeys (Macaca fascicularis); conditions: for Vitreal cell score: number of eyes with grade 0 / Vitreal cell score: number of eyes with grade 1 / Vitreal cell score: number of eyes with grade 2 / Vitreal cell score: number of eyes with grade 3 / Vitreal cell score: number of eyes with grade 4 / Vitreal cell score: number of eyes with grade Trace: intravitreal days 1 and 15, cells not distinguishable from dispersed drug
# Method: Once the phase Ib study was completed, and it was established that the drug suspension in oil would not interfere with either laser administration, evaluation of CNV or cause adverse effects, phase II was initiated. On days 1, and 15 both eyes of monkeys received 50 μL of Lucentis (0.5 mg/eye), vehicle (0 mg/eye), BOL-303050-X (1.5 mg/eye), BOL-303054-X (1.5 mg/eye) or BOL-303055-X (1.5 mg/eye) (Table 2). Intravitreous injection was performed for each by eye aiming towards mid-vitreous body. Dosing in the right eye was alternated for successive doses (as applicable) at approximately the 11 o'clock and 10 o'clock positions. Dosing in the left eye was alternated for successive doses (as applicable) from approximately the 1 o'clock and 2 o'clock positions.
# Animals were examined at baseline, on days 1, 3, 7, 15, and 31 of Dosing Phase II and on the day of scheduled sacrifice (day 38). On days of dose administration the ophthalmic examination was done prior to dosing.
# [3] = test system: human retinal endothelial cells (HREC); assay: PMA-induced HREC network formation in fibrin gel; type: cell-based; conditions: PMA 25 ng/mL, vs PMA control
# Method: Prior to the start of the experiment, HREC from Cell Systems were cultured in flask in CS-C complete medium. The tube formation assay was performed in a 96-well plate pre-coated with fibrin gel. HREC were collected from flasks and re-suspended 1% FBS EBM-2 medium. Cells were pre-incubated with the integrin antagonists, echistatin or vehicle control for 30 min before loading onto the fibrin gel. Images were taken at 9 h.
# Thrombin solution and fibrinogen solutions were allowed to thaw at room temperature and 37° C. water bath, respectively. Fibrinogen solution at 30 μL was added into the desired number of wells in a 96-well plate. Plate was gently shaken to ensure uniform coverage of fibrinogen solution in the well. Thrombin at 20 μL was added into each well. The plate was gently shaken immediately to ensure the thrombin was mixed well with fibrinogen. The plate was placed at 37° C. overnight to allow the fibrin gel to polymerize.
# HREC were trypsinized at about 80% confluence and counted by standard hemocytometer methods. After deactivating trypsin with 5 mL of 10% FBS EBM-2 medium, the cells were centrifuged (800 rpm, 8 min) and re-suspended at 2×10^5 cells/mL in 1% FBS EBM-2 medium
# Cells were pre-incubated with integrin compounds or echistatin at 37° C., 5% CO2, and 95% humidity for 30 minutes before mixing with PMA medium. The final concentrations of all agents are shown in the design table. The 100 μL of the cell mixture was added onto the gel and cells were cultured at 37° C., 5% CO2, and 95% humidity. Images were taken at different time points.
# The network formation scoring system (a five point-scale)
# Each well in one group was given a score and then averaged. Data were expressed as mean±SEM of network formation scores. Statistical analysis was performed using a one-way ANOVA-Dunnett's test in raw data, and p<0.05 was considered statistically significant. Data analysis was performed using statistical analysis software JMP (SAS Institute, Cary, N.C.).
# [4] = test system: laser-induced CNV in rats; assay: Laser-induced choroidal neovascularization in rats (CNV area, fluorescein angiography grades); type: in vivo, Brown Norway rats; conditions: day 14, 200 μg/eye (echistatin 5 μg, Avastin 125 μg); for CNV area / development of CNV on isolectin IB4-labeled flat mounts compared to vehicle-treated controls / Mean score of fluorescein leakage (FA score) compared to vehicle-treated controls: one intravitreal injection after laser; for Number of lesions in FA grade 1 / Number of lesions in FA grade 2 / Number of lesions in FA grade 3 / Number of lesions in FA grade 4: unobstructed lesions
# Method: Fifty six male Brown Norway rats, approximately 200-300 grams of body weight and two months of age, were used in this study. This study was performed in two cohorts and only one eye of each rat was used.
# The pupils were dilated and then the rats were anesthetized as described in baseline examination. The rats were positioned in front of a slit lamp system (Haag-Streit USA, Mason, Ohio). […] A diode laser (OcuLight TX, IRIDEX, Mountain View, Calif.) was used for photocoagulation (532 nm wavelength, 120 mW power, 50 μm spot size and 0.05 seconds duration). For each right eye, a series of six photocoagulation sites were concentrically placed between the major retinal vessels at equal distance (about two optic discs) around the optic nerve head. […] If a significant retinal or subretinal hemorrhage occurred during the laser photocoagulation, then the left eye was be photocoagulated and used as the experimental eye.
# Grade 1 lesions had no hyperfluorescence.
# The eyes were collected on day 14 and immediately fixed in 4% paraformaldehyde in PBS (pH 7.4) for one and half hours, and then transferred into cold PBS and kept at 4° C. for further processing.
# The incubation was performed in a humidified dark chamber with gentle rotation at 4° C. overnight. On the second day, the retinal pigment epithelium (RPE)-choroidsclera complexes were washed with cold IHC buffer, mounted with ProLong® Gold antifade reagent, covered with circular cover glass, and sealed with clear nail polish. Fluorescent images were collected with a confocal microscope (FluoView FV 1000 confocal microscope, Olympus, Center Valley, Pa.) and a 4×, 0.16 numerical aperture objective lens. […] The laser sites were identified by merging images of the green (phalloidin labeling RPE) and the red (isolectin IB4 labeling CNV) channels. CNV complexes were identified using the red channel (isolectin), and their areas were quantified using the FluoView software (Version 1.7a).
# Average FA scores and areas of CNV complexes in each group were presented as mean±SEM, unless otherwise indicated. They were analyzed using a one-way ANOVA followed by a Tukey-Kramer test after Box-Cox transformations. All statistics were performed utilizing the statistical analysis software JMP (SAS Institute, Cary, N.C.). p values ≦0.05 were considered statistically significant.
compound,measurement,setting,value
COc1ccc(S(=O)(=O)N[C@@H](CNc2nc(C)nc(N3CCC(c4ccc5c(n4)NCCC5)CC3)c2C)C(=O)O)cc1 [BOL-303050-X],Eyes with anterior chamber inflammation/Total eyes,[1],0/6
same,Eyes with retinal vascular congestion/vessel-observable eyes,[1],0/5
same,Intraocular inflammation and retinal vascular congestion,[1]; Day 14 after intravitreal injection,Neither inflammation nor retinal vascular congestion was observed
same,Vitreal cell score: number of eyes with grade 0,[2]; Day 3,8
same,Vitreal cell score: number of eyes with grade 1,[2]; Day 3,5
same,Vitreal cell score: number of eyes with grade 2,[2]; Day 3,0
same,Vitreal cell score: number of eyes with grade 3,[2]; Day 3,0
same,Vitreal cell score: number of eyes with grade 4,[2]; Day 3,1
same,Vitreal cell score: number of eyes with grade Trace,[2]; Day 3,4
same,Vitreal cell score: number of eyes with grade 0,[2]; Day 7,1
same,Vitreal cell score: number of eyes with grade 1,[2]; Day 7,4
same,Vitreal cell score: number of eyes with grade 2,[2]; Day 7,6
same,Vitreal cell score: number of eyes with grade 3,[2]; Day 7,2
same,Vitreal cell score: number of eyes with grade 4,[2]; Day 7,5
same,Vitreal cell score: number of eyes with grade Trace,[2]; Day 7,0
same,Vitreal cell score: number of eyes with grade 0,[2]; Day 15,1
same,Vitreal cell score: number of eyes with grade 1,[2]; Day 15,8
same,Vitreal cell score: number of eyes with grade 2,[2]; Day 15,2
same,Vitreal cell score: number of eyes with grade 3,[2]; Day 15,1
same,Vitreal cell score: number of eyes with grade 4,[2]; Day 15,4
same,Vitreal cell score: number of eyes with grade Trace,[2]; Day 15,2
same,Vitreal cell score: number of eyes with grade 0,[2]; Day 31,0
same,Vitreal cell score: number of eyes with grade 1,[2]; Day 31,2
same,Vitreal cell score: number of eyes with grade 2,[2]; Day 31,1
same,Vitreal cell score: number of eyes with grade 3,[2]; Day 31,1
same,Vitreal cell score: number of eyes with grade 4,[2]; Day 31,11
same,Vitreal cell score: number of eyes with grade Trace,[2]; Day 31,0
same,Vitreal cell score: number of eyes with grade 0,[2]; Day 38,0
same,Vitreal cell score: number of eyes with grade 1,[2]; Day 38,1
same,Vitreal cell score: number of eyes with grade 2,[2]; Day 38,0
same,Vitreal cell score: number of eyes with grade 3,[2]; Day 38,3
same,Vitreal cell score: number of eyes with grade 4,[2]; Day 38,12
same,Vitreal cell score: number of eyes with grade Trace,[2]; Day 38,0
same,Drug-related ocular findings,"[2]; oil formulation, 1.5 mg/eye intravitreal",No drug-related ocular findings were reported
same,Inhibition of PMA-induced HREC network formation in fibrin gel,[3]; 1 nM,significantly inhibited
same,Inhibition of PMA-induced HREC network formation in fibrin gel,[3]; 10 nM,significantly inhibited
same,CNV area / development of CNV on isolectin IB4-labeled flat mounts compared to vehicle-treated controls,[4],completely inhibited in a small portion of lesions; also recorded: smaller area of CNV
same,Mean score of fluorescein leakage (FA score) compared to vehicle-treated controls,[4],smaller means
same,Number of lesions in FA grade 1,[4],6
same,Number of lesions in FA grade 2,[4],12
same,Number of lesions in FA grade 3,[4],4
same,Number of lesions in FA grade 4,[4],2
COc1c(NC[C@H](NC(=O)OCc2ccccc2)C(=O)O)ncnc1N1CCC(c2ccc3c(n2)NCCC3)CC1 [BOL-303054-X],Eyes with anterior chamber inflammation/Total eyes,[1],4/6
same,Eyes with retinal vascular congestion/vessel-observable eyes,[1],4/5
same,Vitreal cell score: number of eyes with grade 0,[2]; Day 3,9
same,Vitreal cell score: number of eyes with grade 1,[2]; Day 3,1
same,Vitreal cell score: number of eyes with grade 2,[2]; Day 3,1
same,Vitreal cell score: number of eyes with grade 3,[2]; Day 3,0
same,Vitreal cell score: number of eyes with grade 4,[2]; Day 3,0
same,Vitreal cell score: number of eyes with grade Trace,[2]; Day 3,5
same,Vitreal cell score: number of eyes with grade 0,[2]; Day 7,2
same,Vitreal cell score: number of eyes with grade 1,[2]; Day 7,2
same,Vitreal cell score: number of eyes with grade 2,[2]; Day 7,2
same,Vitreal cell score: number of eyes with grade 3,[2]; Day 7,4
same,Vitreal cell score: number of eyes with grade 4,[2]; Day 7,6
same,Vitreal cell score: number of eyes with grade Trace,[2]; Day 7,2
same,Vitreal cell score: number of eyes with grade 0,[2]; Day 15,0
same,Vitreal cell score: number of eyes with grade 1,[2]; Day 15,6
same,Vitreal cell score: number of eyes with grade 2,[2]; Day 15,2
same,Vitreal cell score: number of eyes with grade 3,[2]; Day 15,0
same,Vitreal cell score: number of eyes with grade 4,[2]; Day 15,8
same,Vitreal cell score: number of eyes with grade Trace,[2]; Day 15,0
same,Vitreal cell score: number of eyes with grade 0,[2]; Day 31,0
same,Vitreal cell score: number of eyes with grade 1,[2]; Day 31,1
same,Vitreal cell score: number of eyes with grade 2,[2]; Day 31,8
same,Vitreal cell score: number of eyes with grade 3,[2]; Day 31,2
same,Vitreal cell score: number of eyes with grade 4,[2]; Day 31,6
same,Vitreal cell score: number of eyes with grade Trace,[2]; Day 31,1
same,Vitreal cell score: number of eyes with grade 0,[2]; Day 38,0
same,Vitreal cell score: number of eyes with grade 1,[2]; Day 38,0
same,Vitreal cell score: number of eyes with grade 2,[2]; Day 38,3
same,Vitreal cell score: number of eyes with grade 3,[2]; Day 38,2
same,Vitreal cell score: number of eyes with grade 4,[2]; Day 38,13
same,Vitreal cell score: number of eyes with grade Trace,[2]; Day 38,0
same,Anterior chamber inflammation,"[2]; left eye of one monkey that developed endophthalmitis on day 29, until day 38",Moderate anterior chamber inflammation
same,Inhibition of PMA-induced HREC network formation in fibrin gel,[3]; 1 nM,not statistically significant
same,Inhibition of PMA-induced HREC network formation in fibrin gel,[3]; 10 nM,not statistically significant
same,Number of lesions in FA grade 1,[4],0
same,Number of lesions in FA grade 2,[4],0
same,Number of lesions in FA grade 3,[4],5
same,Number of lesions in FA grade 4,[4],1
"bevacizumab [Avastin, reference compound]",CNV area / development of CNV on isolectin IB4-labeled flat mounts compared to vehicle-treated controls,[4],did not inhibit the development of CNV
same,Mean score of fluorescein leakage (FA score) compared to vehicle-treated controls,[4],smaller means
same,Number of lesions in FA grade 2,[4],7
same,Number of lesions in FA grade 4,[4],15
